Tested on: RMG-1 viability, CellTiterGlo ATP luminescence, 96 h
Test: RMG-1 ovarian cancer cell viability loss – cherry-pick, dose response (AID 687029)

SMILES	AC50
Cc1ccsc1/C=N/Nc1cccc(C(=O)O)c1	13200 nM
O=C(Nc1ccc(N2CCN(C(=O)c3ccccc3)CC2)cc1)c1ccc([N+](=O)[O-])o1	< 260 nM
O=C(Nc1cccc(-c2ccc(N3CCCCC3)nn2)c1)C(F)(F)F	< 260 nM
CCOc1ccc(NC(=O)Nc2cc(OCC(F)(F)F)cc(OCC(F)(F)F)c2)cc1	9370 nM
C#CCN(C[C@@H]1[C@@H](OC(=O)NCc2ccccc2F)[C@@H](OC(=O)NCc2ccccc2F)Cn2c(=O)ccc(=O)n21)S(=O)(=O)c1ccc(C)cc1	< 260 nM
O=S(=O)(NCC1CCCO1)c1cnc(Cl)c(Br)c1 (configuration not stated)	< 260 nM
COc1cc(OC)c2c(-c3cccc(-c4ccc(OC)c(F)c4)c3)cc(=O)oc2c1	11400 nM
O=C(Nc1ccc(Cl)c(Cl)c1)N[C@@H]1CC[C@H](CCn2cc(C3CCCCC3)nn2)O[C@H]1CO	< 260 nM
COc1cccc(-c2ccc([C@H]3[C@@H](CO)N(C(=O)Cc4ccccc4)[C@H]3C#N)cc2)c1	< 260 nM
COc1ccc(CCNc2nnc(Sc3nnnn3-c3ccccc3)s2)cc1OC	13000 nM
O=C(CCC(=O)c1ccccc1)NCCc1c[nH]c2ccccc12	< 260 nM
O=c1[nH]c2ccccc2n1C1CCN(C(c2cccs2)c2nnnn2-c2ccc3c(c2)OCCO3)CC1 (configuration not stated)	< 260 nM
C=C1C(=O)C2=CC1CCC(=O)C1(C)CCC(OC(C)=O)C(C)(C)C1CC2O (configuration not stated)	< 260 nM
COc1ccc2c(COC(=O)CNC(=O)C34CC5CC(CC(C5)C3)C4)cc(=O)oc2c1	< 260 nM
O=C(c1cc([N+](=O)[O-])ccc1N1CCOCC1)N1CCN(c2ccccc2)CC1	< 260 nM
C[C@@H]1CCCCO[C@H](CN(C)C(=O)C2CCCCC2)[C@@H](C)CN([C@@H](C)CO)C(=O)c2cc(NC(=O)Nc3ccc(F)cc3)ccc2O1	< 260 nM
COc1ccc(NC(=O)Nc2ccc3c(c2)C(=O)N([C@@H](C)CO)C[C@@H](C)[C@@H](CN(C)CC2CCCCC2)OCCCC[C@@H](C)O3)cc1	< 260 nM
O=C(NCc1ccco1)C1CCCN(S(=O)(=O)c2ccc(Br)cc2)C1 (configuration not stated)	< 260 nM
Cc1cc(C2=NNC(=NC3CC3)SC2)c(C)n1-c1ccccc1F	< 260 nM
O=C1c2cccc3cc([N+](=O)[O-])cc(c23)C(=O)N1CCN1CCCC1	< 260 nM
COc1ccc(C(=O)NC(=S)NNC(=O)c2c(-c3ccccc3)noc2C)cc1	< 260 nM
c1cc2c(cc1C1=NNC(=NC3CC3)SC1)OCCO2	< 260 nM
Oc1cccc2cc(Nc3ccccc3)cnc12	< 260 nM
CC(C)CCCCCCCCCCCCC(=O)NCC(=O)NC1C(C)OC(Nc2ncnc3nc[nH]c23)C(O)C1O (configuration not stated)	275 nM
Cc1ccc(C(=O)N/C(=C\c2ccc(-c3ccc(Br)cc3)o2)C(=O)NCCCN(C)C)cc1	12500 nM

SMILES	AC50
C[C@@H]1CCCCO[C@@H](CN(C)C(=O)Nc2cccc3ccccc23)[C@H](C)CN([C@H](C)CO)C(=O)c2cc(NS(=O)(=O)c3ccccc3)ccc2O1	< 260 nM
CCOC(=O)c1c(C)[nH]c2c1-c1ccccc1C(=O)C2=O	< 260 nM
O=C(Nc1cccc(NC(=O)c2cccs2)c1)c1ccc([N+](=O)[O-])o1	11100 nM
O=C(O)c1cccc(COc2ccc3c(c2)CCC3)c1	< 260 nM
Cc1cc(Nc2ccc3c(c2)OCCO3)c2ccccc2n1	< 260 nM
Cc1ccc2c(c1)c1c3n2CCN(CC(N)=O)C3CCC1 (configuration not stated)	12300 nM
C[C@@H]1CN([C@@H](C)CO)C(=O)Cc2cc(NS(=O)(=O)c3ccc(Cl)cc3)ccc2O[C@H]1CN(C)Cc1ccc(Oc2ccccc2)cc1	< 260 nM
CC(C)(C)[C@H](N)C(=O)N[C@H]1CCC2C3CC=C4C[C@@H](O)CC[C@]4(C)C3CC[C@@]21C (some centres not stated)	< 260 nM
CC(C)c1cc(C(=O)OCC(=O)N2CCN(C(=O)c3ccco3)CC2)c(O)c(C(C)C)c1	< 260 nM
COc1ccc(C(=O)c2ccc(Cl)c([N+](=O)[O-])c2)cc1	< 260 nM
Cc1nnc(N/N=C/c2cc(C)n(-c3ccc(F)cc3)c2C)n1N	8360 nM
COc1ccc(-c2nc3c(c(SCC(=O)Nc4cccc(O)c4)n2)Cc2c(CO)cnc(C)c2O3)cc1	10500 nM
Cn1nnnc1Sc1ncnc2scc(-c3cccc(S(C)(=O)=O)c3)c12	10200 nM
O=C(C(=O)N(Cc1ccccc1)Cc1ccccc1)c1c(-c2ccccc2)[nH]c2ccccc12	< 260 nM
C[C@H](CO)N1C[C@H](C)[C@@H](CN(C)S(=O)(=O)c2ccc(Cl)cc2)OCCCC[C@H](C)Oc2ccc(NS(=O)(=O)c3ccc(Cl)cc3)cc2C1=O	< 260 nM
CCOc1ccc(-n2c(=S)sc3c(=O)[nH]c(SCC(=O)NCC4CCCO4)nc32)cc1 (configuration not stated)	< 260 nM
CSC(=Nc1ccccc1)N=C(SCc1ccccc1)N(C)C	< 260 nM
N#Cc1ccc(-c2ccc(C3[C@@H]4CN(C(=O)C5CC5)C[C@H]3N4)cc2)cc1 (some centres not stated)	< 260 nM
COc1cc(OC)cc(C(=O)NCC(=O)OCC(=O)c2cc(C)n(Cc3ccco3)c2C)c1	< 260 nM
Cn1c(CCN2CCCC2)nc2cc(NS(=O)(=O)c3ccccc3)ccc21	< 260 nM
CC1CN(CC(O)COC(c2ccccc2)c2ccccc2)CC(C)O1 (configuration not stated)	< 260 nM
O=C(Nc1cccc(Cl)c1)Nc1nnc(-c2ccncc2)s1	< 260 nM
CCN(CC)S(=O)(=O)c1cc(NC(=O)Cn2ncc(Cl)c(Cl)c2=O)ccc1C	< 260 nM
C[C@H]1CCCCO[C@H](CN(C)Cc2ccc(C(F)(F)F)cc2)[C@@H](C)CN([C@@H](C)CO)C(=O)c2cc(NS(=O)(=O)c3ccc(Cl)cc3)ccc2O1	< 260 nM
COc1cccc(CC(=O)Nc2nc3c(s2)C(=O)CC(C)(C)C3)c1	< 260 nM

SMILES	AC50
CCCNC(=O)Nc1ccc2c(c1)OC[C@H](C)N(Cc1ccc(-c3ccccn3)cc1)C[C@@H](C)[C@@H](OC)CN(C)C2=O	< 260 nM
Cc1nc(Nc2nc(CSc3nc4ccccc4[nH]3)cc(=O)[nH]2)nc2ccccc12	< 260 nM
Cc1ccccc1CNC(=O)C1CCCN(c2nnc(C)c3c(C)n(-c4ccccc4)nc23)C1 (configuration not stated)	< 260 nM
COc1cccc(N2CCN(C(=O)c3ccc(CS(=O)c4ccccc4Cl)o3)CC2)c1 (configuration not stated)	< 260 nM
COc1ccc(NC(=O)c2c(Nc3ccccc3)sc(C(=O)c3ccc(F)cc3)c2N)cc1	< 1000 nM
OCCCNc1nccc(-c2cc(Nc3cccc(Cl)c3)ncn2)n1	< 260 nM
Cc1ccc(NC(=O)CN(C)C(=O)Cn2ncc(Cl)c(Cl)c2=O)cc1	< 260 nM
Cc1ccc(S(=O)(=O)CC(CN2CCCCC2)N2CCCCC2)cc1 (configuration not stated)	< 260 nM
C=C(C)c1nc(Oc2ccccc2)nc(Oc2ccccc2)n1	< 260 nM
O=C(CSc1ncccc1-c1nc2ccccc2[nH]1)N1CCc2ccccc21	< 260 nM
Cn1ncc2c(O/N=C(\N)c3ccc(C(F)(F)F)cc3)ncnc21	< 260 nM
C[C@@H]1CN([C@H](C)CO)C(=O)c2cc(NS(=O)(=O)c3ccc(Cl)cc3)ccc2O[C@@H](C)CCCCO[C@@H]1CN(C)Cc1ccccc1	< 260 nM
O=C(NCc1cc(C(F)(F)F)ccc1Cl)c1cccc2c1C(=O)c1ccc(N3CCC(N4CCCCC4)CC3)cc1S2(=O)=O	< 260 nM
C[C@]12CCC3C(CCC4=CC(O)CC[C@@]43/C=N/O)C1(O)CCC2C1=CC(=O)OC1 (some centres not stated)	< 260 nM
C(=Cc1cnc2ccccc2n1)c1ccc2c(c1)OCO2	12900 nM
CCN(CC(=O)Nc1c(F)cccc1F)C(=O)c1cc(S(=O)(=O)N(C)C)ccc1N1CCCC1	< 260 nM
C[C@H](CO)N1C[C@H](C)[C@H](CN(C)S(=O)(=O)c2ccc(Cl)cc2)OCCCC[C@H](C)Oc2ccc(NS(=O)(=O)c3ccc(F)cc3)cc2C1=O	< 260 nM
Cc1cccc(N(Cc2cc(=O)[nH]c3ccccc23)C(=O)CCl)c1	< 260 nM
Nc1nc(=S)c2[nH]cnc2[nH]1	< 260 nM
CCCn1c(C)cc(C(=O)CN2C(=O)c3ccccc3S2(=O)=O)c1C	< 260 nM
Cc1ccc(S(=O)(=O)Nc2ccc3c(c2)CC(=O)N([C@H](C)CO)C[C@H](C)[C@H](CN(C)S(=O)(=O)c2ccc(F)cc2)O3)cc1	4300 nM
COc1cc(/C=N/O)ccc1OCc1ccc(C(=O)O)cc1	12800 nM
COc1ccc(S(=O)(=O)Nc2ccc3c(c2)C(=O)N([C@@H](C)CO)C[C@H](C)[C@@H](CN(C)Cc2ccc(C(F)(F)F)cc2)OCCCC[C@H](C)O3)cc1	372 nM
CCc1cc(-c2n[nH]c(C)c2-c2nc3ccccc3n2C)c(O)cc1O	< 260 nM
O=c1cc(-c2ccccc2)oc2ccc3ccccc3c12	< 260 nM

SMILES	AC50
Cc1ccc(-c2csc3ncnc(Sc4nnc(CN5CCCCCC5=O)o4)c23)cc1	10800 nM
CCCC(=O)NC(c1ccc(C(C)C)cc1)c1ccc2cccnc2c1O (configuration not stated)	< 260 nM
COc1ccc(Cn2cc3c(-c4ccc(F)cc4)nnc-3c3cc(OC)c(OC)cc32)cc1	21300 nM
CCC(c1nnnn1Cc1ccccc1)N1CCC(n2c(=O)[nH]c3ccccc32)CC1 (configuration not stated)	< 260 nM
COc1ccc(/C=N/NC(=O)c2[nH]c3ccc(Br)cc3c2-c2ccccc2)cc1	< 260 nM
COc1cc(C2C3=C(COC3=O)Oc3cc4c(cc32)OCO4)cc(OC)c1O (configuration not stated)	< 260 nM
Cn1c(SCC(=O)c2ccccc2)nnc1-c1ccccn1	1420 nM
COc1cc2nc(C3CCC3)nc(N3CCN(c4ccccc4OC)CC3)c2cc1OC	< 260 nM
Cc1cnc(NC(=O)c2ccc3c(c2)OCCO3)s1	< 260 nM
COc1ccc(F)cc1-c1cc(NC=O)c2ncc(-c3cc(OC)c(OC)c(OC)c3)n2c1	< 260 nM
FC(F)(F)c1nnc2c(Sc3ccccn3)nc3ccccc3n12	14200 nM
O=C(NC1CCCCC1)C(c1cccnc1)N(C(=O)CCl)c1ccc(F)cc1 (configuration not stated)	9950 nM
COc1ccc(C2=NNC(=Nc3cc(S(=O)(=O)N(C)C)ccc3C)SC2)c(OC)c1	< 260 nM
CCC(=O)NC(c1ccc(C)cc1)c1ccc2cccnc2c1O (configuration not stated)	< 260 nM
CCOc1ccc(C(=O)C(CCC(CN(C)C)C(=O)c2ccc(OCC)cc2)CN(C)C)cc1 (configuration not stated)	< 260 nM
S=c1sc2c(Cl)ncnc2n1-c1ccccc1	< 260 nM
CN1c2ccccc2N(C)C1(C)c1ccccc1	< 260 nM
C=C(C(=O)c1ccccc1)C(C(=C)C(=O)c1ccccc1)c1ccc(OC)cc1	< 260 nM
CN(C(=O)OC(C)(C)C)c1ccc(-c2nc3ccccc3s2)cc1	< 260 nM
C[C@@H]1CCCCO[C@@H](CN(C)S(=O)(=O)c2ccc(Cl)cc2)[C@H](C)CN([C@H](C)CO)C(=O)c2cc(NS(=O)(=O)c3ccc(F)cc3)ccc2O1	1720 nM
CCCC(=O)NC1=C(Cl)C(=O)c2ccccc2C1=O	< 260 nM
Cc1nc2sc(C(c3ccco3)N3CCN(C(c4ccccc4)c4ccccc4)CC3)c(O)n2n1 (configuration not stated)	< 260 nM

Source: PubChem BioAssay AID687029 (Broad Institute, 2013)
